The structures appear in SMILES notation.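 Grown in 96-well plates, cells were treated for 48 hours with each compound at five concentrations. Insufficient inhibition: endpoint recorded as highest concentration tested. The concentration for 50% growth inhibition is given as GI50. TGI: total growth inhibition.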

The values that follow come from PubChem BioAssay (NCI).

What all share (experiment): NCI-60 cell line screen, 48 h
Experiment [1] deals with OVCAR-5 ovarian.
Experiment [2] relates to KM12 colon.
Experiment [3] concerns A549 NSCLC.
Experiment [4] has as its system OVCAR-3 ovarian.
For experiment [5], the system named is EKVX NSCLC.
For experiment [6], the system named is BT-549 breast.
In experiment [7] the test system is ACHN renal.
In experiment [8] the test system is OVCAR-4 ovarian.
The subject of experiment [9] is A498 renal.
Experiment [10] has as its system SW-620 colon.

With `CCN(CC)CCCC(Cc1ccccc1)Nc1c2ccc(Cl)cc2nc2ccc(OC)cc12` (stereo not given), the GI50 in experiment [1] was 2670 nM; in experiment [2], 2790 nM; in experiment [3], 2.79 µM; in [4], 2880 nM; in [5], 2.84 µM; in [6] it was 2200 nM. Also, the GI50 in [7] was 2010 nM; in experiment [8], 2150 nM; in experiment [9], 1.88 µM; in experiment [10], 1770 nM. Also, the TGI in experiment [1] was found to be 12.7 µM; in experiment [2] it was 10.3 µM; in [3], 7.29 µM; in experiment [4], 12.2 µM; in experiment [5], 10.5 µM; in experiment [6], 5.17 µM. Besides, the TGI came out at 4.5 µM in experiment [7], 6.2 µM in experiment [8], 5.09 µM in [9] and 3.81 µM in [10].

Turning to `COc1ccc(OC)c(/C=C2\COc3ccc(O)c(O)c3C2=O)c1`, the GI50 in experiment [1] is 2620 nM; in experiment [2], 1730 nM; in experiment [3], 3.07 µM; in experiment [4], 1360 nM; in [5], 3.26 µM; in experiment [6], 1710 nM. For the same molecule, the GI50 in [7] was 1840 nM; in [8], 2580 nM; in experiment [9], 11.2 µM; in [10], 2220 nM. Further, the TGI in [1] worked out at 6.48 µM; in experiment [2] it was 3.92 µM; in experiment [3], 11.9 µM; in experiment [4] it was 5.31 µM; in [5], 12.2 µM; in experiment [6] it was 6.71 µM. Moreover, the TGI in experiment [7] was 3.97 µM; in experiment [8] it was 14.5 µM; in [9], 23.6 µM; in experiment [10] it was 5.98 µM.

Consider `CSC1=Nc2c(c(C)c(C)n2COC(CO)CO)C2=NC(=O)CC(C)N12` (stereo not given), for which the GI50 is above 100000 nM in experiment [1]; above 100000 nM in [2]; above 100 µM in experiment [3]; above 100000 nM in [4]; above 100 µM in experiment [5]; above 100000 nM in [6]. Besides, the GI50 in [7] is above 100000 nM; in experiment [8], above 100000 nM; in experiment [9], above 100 µM; in [10], above 100000 nM. Further, the TGI in [1], in experiment [2], in [3], in experiment [4], in experiment [5] and in [6] was above 100 µM throughout. Moreover, the TGI in experiment [7], in experiment [8], in experiment [9] and in experiment [10] was above 100 µM each time.

As for `O=C(O)CP(=O)(O)O`, the TGI in experiment [1], in experiment [2], in experiment [3], in experiment [4], in [5] and in experiment [6] was above 100 µM in each case. Besides, the TGI in [7], in experiment [8], in experiment [9] and in [10] was above 100 µM each time.

For the molecule `O=C1/C(=C/c2ccccc2F)CN(C(=O)C(Cl)Cl)C/C1=C\c1ccccc1F`, the GI50 in experiment [1] is 796 nM; in experiment [2] it was 245 nM; in experiment [3], 1.38 µM; in experiment [4] it was 319 nM; in [5], 0.451 µM; in [6] it was 422 nM. In addition, the GI50 in experiment [7] is 327 nM; in experiment [8], 526 nM; in [9], 1.54 µM; in experiment [10], 93 nM. The TGI stood at 2.29 µM in [1]; 0.685 µM in experiment [2]; 3.32 µM in experiment [3]; 1.02 µM in experiment [4]; 2.06 µM in experiment [5]; 1.44 µM in [6]. The TGI was 1.09 µM in experiment [7], 1.83 µM in experiment [8], 3.14 µM in experiment [9] and 0.343 µM in experiment [10].

For the molecule `O=C1CCC(N2Cc3c(C#CCCCNC(=O)c4cc5c(o4)C(=O)c4ccccc4C5=O)cccc3C2=O)C(=O)N1` (stereo not given), the GI50 is 15600 nM in [1]; 4520 nM in [2]; 12.6 µM in [3]; 1970 nM in experiment [4]; 15 µM in experiment [5]; 1730 nM in [6]. Moreover, the GI50 in experiment [7] was 12600 nM; in experiment [8], 1880 nM; in experiment [9], 14.2 µM; in [10], 3050 nM. In addition, the TGI stood at 29.7 µM in experiment [1]; 28.6 µM in experiment [2]; 32.9 µM in experiment [3]; 4.8 µM in experiment [4]; 31.1 µM in experiment [5]; 3.17 µM in [6]. The TGI stood at 26 µM in experiment [7], 4.73 µM in experiment [8], 27.5 µM in [9] and 11.4 µM in [10].

Consider `COc1cc(C2CC(c3ccccc3)=NN2C(C)=O)cc(OC)c1OC` (stereo not given), for which the GI50 in experiment [1] is 70700 nM; in experiment [2], 1420 nM; in experiment [3], 6.63 µM; in experiment [4] it was 2110 nM; in experiment [5], 6.41 µM; in experiment [6], 6370 nM. The GI50 is 5880 nM in experiment [7], 11700 nM in experiment [8], 4.79 µM in experiment [9] and 3040 nM in experiment [10]. For the same molecule, the TGI in experiment [1] is above 100 µM; in experiment [2] it was above 100 µM; in [3], above 100 µM; in experiment [4], 6.52 µM; in [5], above 100 µM; in [6] it was above 100 µM. In addition, the TGI in [7], in experiment [8], in [9] and in experiment [10] was above 100 µM throughout.
